# Measurements from patent publication US20230126391A1, “ALPHA-METHYL-SUBSTITUTED DIAZABICYCLO[4.3.1] DECANE DERIVATIVES FOR TREATMENT OF PSYCHIATRIC DISORDERS” (priority 2020, published 2023).
# Where two headings read alike, the source gives them in different places.
# Experiments:
# LpMip = LpMip (Legionella pneumophila subsp. pneumophila, UniProt Q5ZXE0); test: biochemical; format: binding
# FKBP52 = target: T1, FKBP52 (Homo sapiens, UniProt Q02790); test: FP assay, binding to human FKBPs (Table 1); conditions: fluorescence polarization assay
# T1 sequence (Q02790 1-459): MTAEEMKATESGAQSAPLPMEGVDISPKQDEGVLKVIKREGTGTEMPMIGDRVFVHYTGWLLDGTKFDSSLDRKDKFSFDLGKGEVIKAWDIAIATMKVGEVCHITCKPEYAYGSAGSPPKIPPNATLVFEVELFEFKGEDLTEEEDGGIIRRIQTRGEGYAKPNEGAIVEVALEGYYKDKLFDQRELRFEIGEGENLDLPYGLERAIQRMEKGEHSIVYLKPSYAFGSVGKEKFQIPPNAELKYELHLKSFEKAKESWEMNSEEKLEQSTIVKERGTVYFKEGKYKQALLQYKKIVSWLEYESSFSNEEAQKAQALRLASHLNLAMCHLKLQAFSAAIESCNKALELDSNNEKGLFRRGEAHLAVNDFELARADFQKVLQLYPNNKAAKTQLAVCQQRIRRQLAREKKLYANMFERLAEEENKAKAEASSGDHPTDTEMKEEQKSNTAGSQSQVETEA
# FKBP12 = FKBP12 (Homo sapiens, UniProt P62942); test: FP assay, binding to human FKBPs (Table 1); conditions: fluorescence polarization assay
# FKBP12, sequence (P62942 whole entry): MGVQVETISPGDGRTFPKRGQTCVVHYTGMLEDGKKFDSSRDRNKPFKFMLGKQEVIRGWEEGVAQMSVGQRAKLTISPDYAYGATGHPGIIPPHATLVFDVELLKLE
# FKBP51 = target: T2, FKBP51 (Homo sapiens, UniProt Q13451); test: FP assay, binding to human FKBPs (Table 1); conditions: fluorescence polarization assay
# T2 sequence (Q13451 1-457): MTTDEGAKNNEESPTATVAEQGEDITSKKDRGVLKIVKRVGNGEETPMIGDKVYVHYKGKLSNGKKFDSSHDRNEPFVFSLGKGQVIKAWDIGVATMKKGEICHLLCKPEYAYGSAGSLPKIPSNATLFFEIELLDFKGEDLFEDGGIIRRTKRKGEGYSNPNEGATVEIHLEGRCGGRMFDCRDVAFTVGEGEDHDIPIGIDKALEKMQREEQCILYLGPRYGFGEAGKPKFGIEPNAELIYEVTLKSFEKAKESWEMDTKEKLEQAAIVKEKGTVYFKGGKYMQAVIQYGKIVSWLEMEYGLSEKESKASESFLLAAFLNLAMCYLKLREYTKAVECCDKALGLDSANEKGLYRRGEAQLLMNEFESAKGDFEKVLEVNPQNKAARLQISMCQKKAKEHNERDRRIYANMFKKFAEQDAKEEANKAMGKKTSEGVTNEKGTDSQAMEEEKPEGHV
# FKBP12.6 = FKBP12.6 (Homo sapiens, UniProt P68106); test: FP assay, binding to human FKBPs (Table 1); conditions: fluorescence polarization assay
# FKBP12.6, sequence (P68106 whole entry): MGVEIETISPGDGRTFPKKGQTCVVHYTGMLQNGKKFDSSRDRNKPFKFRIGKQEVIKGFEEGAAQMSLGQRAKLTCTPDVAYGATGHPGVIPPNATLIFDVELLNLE
# LpMip, sequence (Q5ZXE0 21-233 limits assumed): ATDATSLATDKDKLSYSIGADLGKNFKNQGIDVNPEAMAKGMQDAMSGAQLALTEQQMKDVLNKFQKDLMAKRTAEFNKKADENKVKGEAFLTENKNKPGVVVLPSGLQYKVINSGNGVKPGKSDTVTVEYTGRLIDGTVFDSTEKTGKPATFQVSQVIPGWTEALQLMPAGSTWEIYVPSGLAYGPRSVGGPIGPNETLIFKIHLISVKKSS
Structure (SMILES),Ki (LpMip; read-out: Ki LpMip),Ki (FKBP52),Ki (FKBP12),Ki (FKBP51),Ki (FKBP12.6),Ki (LpMip)
C=C[C@H]1CN(Cc2ccccn2)C(=O)[C@@H]2CCC[C@H]1N2S(=O)(=O)c1cc(Cl)cc(Cl)c1 [6a],1350 nM,54 nM,1.3 nM,119 nM,17 nM,–
"C=C[C@H]1CN([C@@H](C)c2ccccn2)C(=O)[C@@H]2CCC[C@H]1N2S(=O)(=O)c1cc(Cl)cc(Cl)c1 [6d, (1S,5S,6R)-10-((3,5-dichlorophenyl)sulfonyl)-3-((S)-1-(pyridin-2-yl)ethyl)-5-vinyl-3,10-diazabicyclo[4.3.1]decan-2-one]",–,2.2 nM,0.15 nM,2.6 nM,0.41 nM,171 nM
C=C[C@H]1CN([C@H](C)c2ccccn2)C(=O)[C@@H]2CCC[C@H]1N2S(=O)(=O)c1cc(Cl)cc(Cl)c1 [6e],–,> 1000 nM,130 nM,> 1000 nM,812 nM,–
C=C[C@H]1CN(Cc2ccccn2)C(=O)[C@@H]2CCC[C@H]1N2S(=O)(=O)c1ccc2ncsc2c1 [7a],5840 nM,276 nM,7.5 nM,294 nM,6 nM,–
"C=C[C@H]1CN([C@@H](C)c2ccccn2)C(=O)[C@@H]2CCC[C@H]1N2S(=O)(=O)c1ccc2ncsc2c1 [7d, (1S,5S,6R)-10-(benzo[d]thiazol-6-ylsulfonyl)-3-((S)-1-(pyridin-2-yl)ethyl)-5-vinyl-3,10-diazabicyclo[4.3.1]decan-2-one]",–,29 nM,2.2 nM,33 nM,0.9 nM,366 nM
C=C[C@H]1CN([C@H](C)c2ccccn2)C(=O)[C@@H]2CCC[C@H]1N2S(=O)(=O)c1ccc2ncsc2c1 [7e],–,3450 nM,240 nM,4550 nM,157 nM,–
"C=C[C@H]1CN([C@@H](C)COCc2ccccc2)C(=O)[C@@H]2CCC[C@H]1N2S(=O)(=O)c1cc(Cl)cc(Cl)c1 [15a, (1S,5S,6R)-3-((S)-1-(benzyloxy)propan-2-yl)-10-((3,5-dichlorophenyl)sulfonyl)-5-vinyl-3,10-diazabicyclo[4.3.1]decan-2-one]",–,1030 nM,58 nM,1080 nM,–,–
C=C[C@H]1CN([C@H](C)COCc2ccccc2)C(=O)[C@@H]2CCC[C@H]1N2S(=O)(=O)c1cc(Cl)cc(Cl)c1 [15b],–,> 5000 nM,> 5000 nM,> 5000 nM,–,–
"C=C[C@H]1CN([C@@H](C)COCc2ccccc2)C(=O)[C@@H]2CCC[C@H]1N2S(=O)(=O)c1ccc2ncsc2c1 [16a, (1S,5S,6R)-10-(benzo[d]thiazol-6-ylsulfonyl)-3-((S)-1-(benzyloxy)propan-2-yl)-5-vinyl-3,10-diazabicyclo[4.3.1]decan-2-one]",–,316 nM,28 nM,263 nM,–,–
C=C[C@H]1CN([C@H](C)COCc2ccccc2)C(=O)[C@@H]2CCC[C@H]1N2S(=O)(=O)c1ccc2ncsc2c1 [16b],–,> 5000 nM,> 5000 nM,> 5000 nM,–,–
"C=C[C@H]1CN([C@@H](C)CO)C(=O)[C@@H]2CCC[C@H]1N2S(=O)(=O)c1ccc2ncsc2c1 [17a, (1S,5S,6R)-10-(benzo[d]thiazol-6-ylsulfonyl)-3-((S)-1-hydroxypropan-2-yl)-5-vinyl-3,10-diazabicyclo[4.3.1]decan-2-one]",–,102 nM,21 nM,110 nM,–,–
C=C[C@H]1CN([C@H](C)CO)C(=O)[C@@H]2CCC[C@H]1N2S(=O)(=O)c1ccc2ncsc2c1 [17b],–,> 5000 nM,> 5000 nM,> 5000 nM,–,–
C=C[C@H]1CN(Cc2cn(-c3ccc(OC)cc3)nn2)C(=O)[C@@H]2CCC[C@H]1N2S(=O)(=O)c1cc(Cl)cc(Cl)c1 [19a],–,361 nM,15 nM,–,16 nM,–
"C=C[C@H]1CN([C@@H](C)c2cn(-c3ccc(OC)cc3)nn2)C(=O)[C@@H]2CCC[C@H]1N2S(=O)(=O)c1cc(Cl)cc(Cl)c1 [19b, (1S,5S,6R)-10-((3,5-dichlorophenyl)sulfonyl)-3-((S)-1-(1-(4-methoxyphenyl)-1H-1,2,3-triazol-4-yl)ethyl)-5-vinyl-3,10-diazabicyclo[4.3.1]decan-2-one]",–,91 nM,4.3 nM,–,16 nM,–
C=C[C@H]1CN([C@H](C)c2cn(-c3ccc(OC)cc3)nn2)C(=O)[C@@H]2CCC[C@H]1N2S(=O)(=O)c1cc(Cl)cc(Cl)c1 [19c],–,1030 nM,233 nM,–,390 nM,–
C=C[C@H]1CN(CCO)C(=O)[C@@H]2CCC[C@H]1N2S(=O)(=O)c1cc(Cl)cc(Cl)c1 [20a],–,387 nM,20 nM,403 nM,–,–
"C=C[C@H]1CN([C@@H](C)CO)C(=O)[C@@H]2CCC[C@H]1N2S(=O)(=O)c1cc(Cl)cc(Cl)c1 [20b, (1S,5S,6R)-10-((3,5-dichlorophenyl)sulfonyl)-3-((S)-1-hydroxypropan-2-yl)-5-vinyl-3,10-diazabicyclo[4.3.1]decan-2-one]",–,116 nM,3.5 nM,107 nM,–,–
C=C[C@H]1CN([C@H](C)CO)C(=O)[C@@H]2CCC[C@H]1N2S(=O)(=O)c1cc(Cl)cc(Cl)c1 [20c],–,> 5000 nM,> 5000 nM,> 5000 nM,–,–
C=C[C@H]1CN(CC(=O)O)C(=O)[C@@H]2CCC[C@H]1N2S(=O)(=O)c1cc(Cl)cc(Cl)c1 [21a],5150 nM,320 nM,33.4 nM,172 nM,–,–
"C=C[C@H]1CN([C@@H](C)C(=O)O)C(=O)[C@@H]2CCC[C@H]1N2S(=O)(=O)c1cc(Cl)cc(Cl)c1 [21b, (2S)-2-((1S,5S,6R)-10-((3,5-dichlorophenyl)sulfonyl)-2-oxo-5-vinyl-3,10-diazabicyclo[4.3.1]decan-3-yl)propanoic acid]",–,80 nM,13 nM,22 nM,–,284 nM
C=C[C@H]1CN([C@H](C)C(=O)O)C(=O)[C@@H]2CCC[C@H]1N2S(=O)(=O)c1cc(Cl)cc(Cl)c1 [21c],–,296 nM,48 nM,123 nM,–,–
C=C[C@H]1CN(CCOC)C(=O)[C@@H]2CCC[C@H]1N2S(=O)(=O)c1cc(Cl)cc(Cl)c1 [22a],–,377 nM,59 nM,529 nM,–,–
"C=C[C@H]1CN([C@@H](C)COC)C(=O)[C@@H]2CCC[C@H]1N2S(=O)(=O)c1cc(Cl)cc(Cl)c1 [22b, (1S,5S,6R)-10-((3,5-dichlorophenyl)sulfonyl)-3-((S)-1-methoxypropan-2-yl)-5-vinyl-3,10-diazabicyclo[4.3.1]decan-2-one]",–,205 nM,14 nM,204 nM,–,–
C=C[C@H]1CN([C@H](C)COC)C(=O)[C@@H]2CCC[C@H]1N2S(=O)(=O)c1cc(Cl)cc(Cl)c1 [22c],–,> 5000 nM,> 5000 nM,> 5000 nM,–,–
O=C1[C@@H]2CCC[C@H]([C@@H](CO)CN1Cc1ccccn1)N2S(=O)(=O)c1cc(Cl)cc(Cl)c1 [23a],467 nM,19 nM,0.35 nM,33 nM,3.4 nM,–
"C[C@@H](c1ccccn1)N1C[C@H](CO)[C@H]2CCC[C@@H](C1=O)N2S(=O)(=O)c1ccc2ncsc2c1 [25b, (1S,5S,6R)-10-(benzo[d]thiazol-6-ylsulfonyl)-5-(hydroxymethyl)-3-((S)-1-(pyridin-2-yl)ethyl)-3,10-diazabicyclo[4.3.1]decan-2-one]",–,–,1.5 nM,–,0.7 nM,237 nM
